“And” between values parts separate entries of the source, which are not always exact repeats. Identical values can stand only once.

From patent US4868195A, “Novel enolamides, pharmaceutical compositions and methods of use thereof for activity as modulators of the arachidonic acid cascade” (Warner-Lambert Company, priority 1988, dated 1989) come the findings set out here.

Experiment [1] concerns the target T1, human leukocyte 5-lipoxygenase (Homo sapiens, UniProt P09917).
T1 construct: endogenous in cells; host or cells: intact leukocytes isolated from human blood
T1 sequence (P09917 1-674): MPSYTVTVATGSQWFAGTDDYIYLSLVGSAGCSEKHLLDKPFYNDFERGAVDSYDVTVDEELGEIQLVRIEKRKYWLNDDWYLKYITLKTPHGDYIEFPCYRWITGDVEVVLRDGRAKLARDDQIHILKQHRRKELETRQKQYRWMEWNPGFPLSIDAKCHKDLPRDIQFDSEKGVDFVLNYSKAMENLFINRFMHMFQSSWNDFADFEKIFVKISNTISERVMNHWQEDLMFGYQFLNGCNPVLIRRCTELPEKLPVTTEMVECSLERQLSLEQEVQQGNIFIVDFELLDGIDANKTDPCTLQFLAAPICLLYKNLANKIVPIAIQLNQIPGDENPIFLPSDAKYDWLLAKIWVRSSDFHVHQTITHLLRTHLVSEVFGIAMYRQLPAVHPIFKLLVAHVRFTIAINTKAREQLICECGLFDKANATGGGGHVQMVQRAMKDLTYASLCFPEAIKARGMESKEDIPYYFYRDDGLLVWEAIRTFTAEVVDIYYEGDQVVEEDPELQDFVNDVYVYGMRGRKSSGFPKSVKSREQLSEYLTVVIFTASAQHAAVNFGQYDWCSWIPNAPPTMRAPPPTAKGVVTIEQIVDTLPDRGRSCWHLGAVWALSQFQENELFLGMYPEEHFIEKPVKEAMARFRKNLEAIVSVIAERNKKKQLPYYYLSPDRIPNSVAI
Description: 5-lipoxygenase inhibition in human leukocytes, 5-HETE formation (5LOA; methods 5LOA1 and 5LOA2). The class given is cell-based. The conditions noted are these: 5-HETE formation, human leukocytes; read-out: Concentration (M) for 50.0 % Inhibition, IC (5LOA). An excerpt:
To Evaluate the Effect of Each Compounds as a 5-Lipoxygenase Inhibitor in Comparison to Standard Reference Agents in Human Leukocytes (5LOA1)
The purpose of this assay is to evaluate the activity of each compound as an inhibitor of human leukocyte 5-lipoxygenase.
Arachidonic acid and calcium ionophore A23187 are obtained from Sigma (St. Louis, MO). Silica gel plates, GF are obtained from Analtech (Newark, DE). Arachidonic acid, (1-^14 C) and 5-HETE (^3 H), 5 (S)-hydroxy-6-trans,8,11,14-cis eicosatetraenoic acid, are obtained from New England Nuclear (Boston, MA). Six percent Dextran-70 in 0.9% NaCl is obtained from Cutter Labs (Berkeley, CA).
Preparation of Leukocytes
Fresh blood from normal adult men who had not received any drugs for at least the previous five days is obtained by the Community Research Clinic (WL/PD) using venipuncture and collected into heparinized vacuotainer tubes. To every 100 ml of pooled blood is added 25 ml of dextran solution (6% dextran -70 in 0.9% sodium chloride containing 3% dextrose) and this is mixed gently in a plastic cylinder. The mixture is left to stand at room temperature for at least 90 minutes. The upper layer which is rich in leukocytes and platelets is then carefully decanted into 50 ml plastic tubes and centrifuged at about 100×g for eight minutes in an IEC centrifuge and rotor number 269 (about 600 rpm). The supernatant fluid is discarded and the pellet is resuspended in 10 ml of 0.87% ammonium chloride for exactly two minutes. This procedure is to lyse completely contaminating red blood cells. Leukocytes are then separated by centrifugation for ten minutes. The pellet is washed three times by suspension in 20 ml PBS (sodium chloride, 7.1 g; Na2 HPO4, 1.15 g; KH2 PO4, 0.2 g, and KCl, 0.2 g/L) and centrifuged as before. The final pellet is suspended in PBS containing 0.87 mM CaCl2. Viability of the cells is then checked using trypan blue exclusion method and is found to be over 90%.
5-Lipoxygenase Enzyme Assay
Leukocyte cells in suspension (0.98 ml) are incubated with or without test compounds for five minutes at 37° C. in a shaking water bath. At this time a 17 μl mixture is prepared per 1 ml of cell suspension: 100 mM arachidonic acid, 1 μl, 0.05 μCi ^14 C-arachidonic acid in 5 μl; 1 mM calcium ionophore A23187, 10 μl (1). This mixture is added and the incubation continued for five minutes. The reaction is stopped by adding four volumes of absolute ethanol and the mixture is kept in ice for 30 minutes. The floculated precipitate is separated by centrifugation at about 37,000×g for 20 minutes (Beckman Instruments rotor number 40). The alcohol extract is taken to dryness under a stream of nitrogen and the residue is dissolved in 100-200 μl absolute ethanol. At the time any turbidity is removed by centrifugation. An aliquot (25-50 μl) is applied onto 20×20 cm silica gel TLC plate and developed using the following solvent system: diethyl ether, petroleum ether (2040° C.), acetic acid (50:50:1 v/v). Zones of 1 cm apart are scraped from the TLC plate and transferred to mini-vials. Methanol (0.5 ml) is added to dissolve the radioactivity adsorbed to the silica gel and scintillation fluid (H. P., Beckman), 5 ml is then added and vials are counted in a liquid scintillation counter. A sample of ^3 H-5-HETE is applied and used for the identification of the formed 5-HETE.
Total radioactivity in the test as well as the control samples are normalized and the amount of 5-HETE present is calculated accordingly.
IC50 values are defined as the concentrations of test agents which caused a 50% inhibition of the formation of 5-HETE as compared to control and are determined by inspection of the concentration-response curves.
5-Lipoxygenase Assay Using Isolated Human Leukocytes (5LOA2)
The formation of 5-HETE in human leukocytes is considered a measure of 5-lipoxygenase activity. The protocol is described in the following. […]

Experiment [2] concerns the target Human Leukocyte Lipoxygenase. Description: Human Leukocyte Lipoxygenase Assay (LDA-H). The conditions noted are these: for IC50: acetone-pentane powder enzyme, 234 nm, 24° C., 5 min preincubation, read-out: Concentration (M) for 50.0 % Inhibition, IC (LDAH); for % Inhibition (LDAH): Concentration 2.50 E -5 M. The format is biochemical. The method, boiled down: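 Enzyme from acetone-pentane powder of human buffy-coat leukocytes, extracted in 0.1M Tris pH 7.4. Compound preincubated 5 min with enzyme, then reaction started with arachidonic or linoleic acid (100 μM or 1.0 μM) and followed at 234 nm (conjugated diene) at 24° C. IC50 is molar concentration halving control rate.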

As for `COc1ccc(CCc2ccc(NC(=O)C(=O)c3oc4ccccc4c3O)cc2)cc1OC` [Example 121, 2-Benzofuranacetamide, N-[4-[2-(3,4-dimethoxyphenyl)ethyl]phenyl]-3-hydroxy-α-oxo], the figures for the IC50 in experiment [1] and in experiment [2] were 7.6e-06 M and 1.6e-06 M, respectively.

As to `COc1cc(CCc2ccc(NC(=O)C3Oc4ccc5ccccc5c4C3=O)cc2)ccc1O` (centres unmarked) [Example 110, Naphtho[2,1-b]furan-2-carboxamide, N-[4-[2-(4-hydroxy-3-methoxyphenyl)ethyl]phenyl]-1,2-dihydro-1-oxo], in experiment [1], the IC50 is 6.04e-06 M and 6.35e-06 M.

Turning to `COc1cc(CCc2ccc(NC(=O)C3=C(O)c4ccccc4S(=O)(=O)C3)cc2)ccc1O` [Example 70, 2H-1-Benzothiopyran-3-carboxamide, 4-hydroxy-N-[4-[2-(4-hydroxy-3-methoxyphenyl)ethyl]phenyl]-, 1,1-dioxide], the IC50 in experiment [1] is 5e-06 M.

For `O=C(Nc1ccc(CCc2ccc(O)c(O)c2)cc1)c1oc2c(ccc3ccccc32)c1O` [Example 125, Naphtho[1,2-b]furan-2-carboxamide, N-[4-[2-(3,4-dihydroxyphenyl)ethyl]phenyl]-3-hydroxy], the results for the IC50 in experiment [1] and in experiment [2] were 4.01e-06 M and 6.1e-06 M, respectively.

`COc1ccc2c(c1)c1c(n2-c2ccccc2)C(=O)C(C(=O)Nc2ccc(CCc3ccc(OC)c(OC)c3)cc2)O1` (centres unmarked) [Example 158]: in experiment [1], the IC50 is 4.8e-06 M.

Consider `O=C(Nc1ccc(CCc2ccc(O)c(O)c2)cc1)C(=O)C1=C(O)c2ccccc2OC1` [Example 150], for which the IC50 worked out at 1.8e-06 M in experiment [1] and 4.7e-06 M in experiment [2].

With `O=C(Nc1ccc(CCc2ccc(O)c(O)c2)cc1)C1=C(O)c2ccccc2S(=O)(=O)C1` [Example 21, N-[4-[2-(3,4-Dihydroxyphenyl)ethyl]phenyl]-4-hydroxy-2H-1-benzothiopyran-3-carboxamide, 1,1-dioxide], the IC50 in experiment [1] is 7e-07 M; in experiment [2] it was 8.2e-06 M.

Take `O=C(Nc1ccc(CCc2ccc(O)c(O)c2)cc1)c1oc2ccc3ccccc3c2c1O` [Example 122, Naphtho[2,1-b]furan-2-carboxamide, N-[4-[2-(3,4-dihydroxyphenyl)ethyl]phenyl]-1-hydroxy-]: the IC50 in experiment [1] amounted to 7.6e-07 M; in experiment [2] it was 2.3e-06 M.

`COc1cc(C=Cc2ccc(NC(=O)C3=C(O)c4ccccc4S(=O)(=O)N3C)cc2)ccc1O` [Example 87, 2H-1,2-Benzothiazine-3-carboxamide, 4-hydroxy-N-[4-[2-(4-hydroxy-3-methoxyphenyl)ethenyl]phenyl]-2-methyl, 1,1-dioxide]: the IC50 in experiment [1] came out at 4e-07 M.

For the compound `O=C(Nc1ccc(CCc2ccc(O)c(O)c2)cc1)C(=O)C1Oc2cc3ccccc3cc2C1=O` (centres unmarked) [Example 129], the IC50 in experiment [1] came out at 5e-07 M; in experiment [2] it was 1.6e-06 M.

With `O=C(Nc1ccc(CCc2ccc(O)c(O)c2)cc1)C(=O)C1=C(O)c2ccccc2S(=O)(=O)C1` [Example 6, N-[4-[2-(3,4-Dihydroxyphenyl)ethyl]phenyl]-4-hydroxy-α-oxo-2H-1-benzothiopyran-3-acetamide, 1,1-dioxide], in experiment [1], the IC50 is 2e-05 M and 2.1e-05 M.

`O=C(Nc1ccc(CCc2ccc(O)c(O)c2)cc1)C1Oc2c(n(-c3ccccc3)c3ccc(O)cc23)C1=O` (centres unmarked) [Example 163, 2H-Furo[3,2-b]indole-2-carboxamide, N-[4-[2-(3,4-dihydroxyphenyl)ethyl]phenyl]-3,4-dihydro-7-hydroxy-3-oxo-4-phenyl]: the IC50 in experiment [1] worked out at 5e-07 M. For the same compound, in experiment [2], the “% Inhibition (LDAH)” value was found to be 0.0%.

For `O=C(Nc1ccc(CCc2ccc(O)c(O)c2)cc1)C(=O)C1Oc2ccccc2C1=O` (stereo not drawn) [Example 126, 2-Benzofuranacetamide, N-[4-[2-(3,4-Dihydroxyphenyl)ethyl]phenyl]-2,3-dihydro-α,3-dioxo-], the IC50 in experiment [1] is 3.55e-06 M and 2.17e-06 M.

For `O=C(Nc1ccc(CCc2ccc(O)c(O)c2)cc1)c1oc2ccccc2c1O` [Example 124, 2-Benzofurancarboxamide, N-[4-[2-(3,4-dihydroxyphenyl)ethyl]phenyl]-3-hydroxy], the values for the IC50 in experiment [1] and in experiment [2] were 4.2e-06 M and 6.5e-06 M, respectively.

For the compound `COc1ccc(CCc2ccc(NC(=O)C3Oc4cc5ccccc5cc4C3=O)cc2)cc1OC` (centres unmarked) [Example 101, Naphtho[2,3-b]furan-2-carboxamide, N-[4-[2-(3,4-dimethoxyphenyl)ethyl]phenyl]-2,3-dihydroxy-3-oxo], the IC50 in experiment [1] was determined as 8.5e-06 M. Further, the “% Inhibition (LDAH)” value in experiment [2] stood at 0.0%.

For `COc1ccc(CCc2ccc(NC(=O)c3oc4c5ccccc5n(C)c4c3O)cc2)cc1OC` [Example 161, 4H-Furo[3,2-b]indole-2-carboxamide, N-[4-[2-(3,4-dimethoxyphenyl)ethyl]phenyl]-3-hydroxy-4-methyl], the IC50 in experiment [1] is 9e-06 M.

Turning to `Cn1c2ccccc2c2oc(C(=O)Nc3ccc(CCc4ccc(O)c(O)c4)cc3)c(O)c21` [Example 159, 4H-Furo[3,2-b]indole-2-carboxamide, N-[4-[2-(3,4-Dihydroxyphenyl)ethyl]phenyl]-3-hydroxy-4-methyl], the IC50 in experiment [1] was 1.18e-06 M.
